Laboratory results: US6552066B1, “Protein tyrosine kinase inhibitors for treating osteoarthritis” (priority 1995, dated 2003)

Test system: IL-1-stimulated release of radiolabelled proteoglycan from bovine cartilage explants
Assay: Bovine cartilage explant assay with rhIL-1α and plasminogen (35S-GAG release)
Format: cell-based
Conditions: Bos taurus, rhIL-1α 5 ng/mL, plasminogen 0.4 μM
Text: A tissue culture assay was used to measure the ability of the compounds of the present invention to slow the degradation of the extracellular matrix by metalloproteinases. This assay measured the amount of ^35S-glycosaminoglycan (^35S-GAG) released from labeled bovine cartilage explants.
Knee joints from a 1 to 3 week old calf were obtained immediately after sacrifice from the Abattoir and then transported on ice. The intact joints were washed well with tap water and soaked in 50% (v/v) Povidine iodine solution, obtained from Burre National, Inc., Baltimore, Md. All subsequent steps were performed in a laminar flow tissue culture hood using standard sterile technique. The joint was immobilized in a shank holder and the joint capsule was cut open to expose the articular cartilage. […]
Individual disks obtained were transferred to a tissue culture flask containing about 100 mL fresh media. […] When ready to label, the old media was replaced with 50 mL fresh media containing about 1.2 mCi ^35S-Sodium Sulfate. […]
The TC plates were then placed in the incubator and cultured for 3-4 days (initial incubation with rhIL-1α alpha takes at least 3 days to stimulate endogenous metalloproteinases). A 50 μL aliquot of media from each TC plate was saved and counted. […]

Q: `CO[C@H]1[C@@H](OC)C[C@H](C)[C@@H](OC)C2=CC(=O)C=C(NC(=O)/C(C)=C/C=C\[C@H](OC)[C@@H](OC(N)=O)/C(C)=C/[C@@H]1C)C2=O` [Herbimycin A] was tested. Which inhibition at 2 µM did it give?
A: The inhibition at 2 µM was ~70%.
